Columns and labels:
Beta-glucuronidase = target: T1, Beta-glucuronidase (Bos taurus, UniProt A3KMY8); experiment: Inhibition of bovine liver beta-glucuronidase assessed as p-nitrophenol formation preincubated for 30 mins followed by p-nitrophenyl-beta-D-glucuronide addition by spectrophotometric method
T1 sequence (A3KMY8 whole entry): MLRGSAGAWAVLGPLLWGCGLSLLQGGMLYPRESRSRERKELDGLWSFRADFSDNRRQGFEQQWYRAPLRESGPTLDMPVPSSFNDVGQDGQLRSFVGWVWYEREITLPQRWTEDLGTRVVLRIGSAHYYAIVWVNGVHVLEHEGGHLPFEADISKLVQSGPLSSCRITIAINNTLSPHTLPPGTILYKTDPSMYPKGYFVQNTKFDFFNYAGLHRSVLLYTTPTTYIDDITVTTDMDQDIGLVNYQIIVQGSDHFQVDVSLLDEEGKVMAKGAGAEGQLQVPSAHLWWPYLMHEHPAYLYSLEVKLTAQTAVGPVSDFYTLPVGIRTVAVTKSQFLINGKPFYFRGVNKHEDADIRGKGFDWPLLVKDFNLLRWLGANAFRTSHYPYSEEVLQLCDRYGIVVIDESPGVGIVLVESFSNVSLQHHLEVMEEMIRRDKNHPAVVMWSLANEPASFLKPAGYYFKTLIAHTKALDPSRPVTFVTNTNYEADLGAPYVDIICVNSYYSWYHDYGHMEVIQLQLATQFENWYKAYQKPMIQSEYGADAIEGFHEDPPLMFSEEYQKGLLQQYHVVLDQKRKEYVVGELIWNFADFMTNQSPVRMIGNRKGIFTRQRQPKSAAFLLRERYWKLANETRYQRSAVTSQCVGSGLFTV

[1] = target: T2, Beta-glucuronidase (Bos taurus) (UniProt A3KMY8); experiment: Potency index, ratio of D-saccharic acid 1,4-lactone IC50 to compound IC50 for bovine liver beta-glucuronidase
T2 sequence (whole entry): T1 sequence (A3KMY8 whole entry)

Row | IC50 (Beta-glucuronidase; read-out: IC50) | IC50 (Beta-glucuronidase) | Ratio IC50 [1] | SMILES
1 | 72.2 µM | – | – | CCOc1ccc(C2NC(=O)NC(C)=C2C(=O)OC)cc1 (stereo not given)
2 | – | Not Active | – | COC(=O)C1=C(C)NC(=O)NC1c1cccc(OCc2ccccc2)c1 (stereo not given)
3 | – | Not Active | – | COC(=O)C1=C(C)NC(=O)NC1c1ccccc1 (stereo not given)
4 | 33.1 µM | – | – | COC(=O)C1=C(C)NC(=O)NC1c1ccc(C)s1 (stereo not given)
5 | 34.2 µM | – | – | COC(=O)C1=C(C)NC(=O)NC1c1ccc(Cl)cc1 (stereo not given)
6 | 40.2 µM | – | – | COC(=O)C1=C(C)NC(=O)NC1c1ccco1 (stereo not given)
7 | 34.2 µM | – | – | COC(=O)C1=C(C)NC(=O)NC1c1cc(OC)c(O)c(OC)c1 (stereo not given)
8 | 18.2 µM | – | – | COC(=O)C1=C(C)NC(=O)NC1c1cccs1 (stereo not given)
9 | 61 µM | – | – | COC(=O)C1=C(C)NC(=O)NC1c1cc(OC)ccc1OC (stereo not given)
10 | – | Not Active | – | COC(=O)C1=C(C)NC(=O)NC1c1ccc(OC)c(OCc2ccccc2)c1 (stereo not given)
11 | 14.1 µM | – | – | COC(=O)C1=C(C)NC(=O)NC1c1ccccc1F (stereo not given)
12 | – | Not Active | – | COC(=O)C1=C(C)NC(=O)NC1c1cc(Br)c(OC)c(OC)c1 (stereo not given)
13 | 52.2 µM | – | – | CCC1NC(=O)NC(C)=C1C(=O)OC (stereo not given)
14 | 48.2 µM | – | – | COC(=O)C1=C(C)NC(=O)NC1c1cccc2ccccc12 (stereo not given)
15 | 17.6 µM | – | – | COC(=O)C1=C(C)NC(=O)NC1c1ccc(O)cc1 (stereo not given)
16 | 59.2 µM | – | – | COC(=O)C1=C(C)NC(=O)NC1c1ccccc1OC (stereo not given)
17 | 78.2 µM | – | – | CCCCC1NC(=O)NC(C)=C1C(=O)OC (stereo not given)
18 | 54.2 µM | – | – | COC(=O)C1=C(C)NC(=O)NC1c1cccc(OC)c1OC (stereo not given)
19 | 18.2 µM | – | – | COC(=O)C1=C(C)NC(=O)NC1c1ccc(OC)cc1F (stereo not given)

Row | IC50 (Beta-glucuronidase; read-out: IC50) | IC50 (Beta-glucuronidase) | Ratio IC50 [1] | SMILES
20 | 44.2 µM | – | – | COC(=O)C1=C(C)NC(=O)NC1c1ccc(C)o1 (stereo not given)
21 | – | Not Active | – | COC(=O)C1=C(C)NC(=O)NC1c1ccc2ccccc2c1 (stereo not given)
22 | – | Not Active | – | COC(=O)C1=C(C)NC(=O)NC1c1ccc(C(C)C)cc1 (stereo not given)
23 | 55.2 µM | – | – | COC(=O)C1=C(C)NC(=O)NC1CC(C)C (stereo not given)
24 | 59.2 µM | – | – | COC(=O)C1=C(C)NC(=O)NC1c1ccc(OC)cc1 (stereo not given)
25 | 9.38 µM | – | 5 | COC(=O)C1=C(C)NC(=O)NC1c1ccc(C(F)(F)F)cc1 (stereo not given)
26 | 44.2 µM | – | – | COC(=O)C1=C(C)NC(=O)NC1c1ccccc1Cl (stereo not given)
27 | 47.2 µM | – | – | COC(=O)C1=C(C)NC(=O)NC1c1ccsc1 (stereo not given)
28 | 49.1 µM | – | – | COC(=O)C1=C(C)NC(=O)NC1c1ccc([N+](=O)[O-])cc1 (stereo not given)
29 | 49.2 µM | – | – | COC(=O)C1=C(C)NC(=O)NC1c1ccc(N(C)C)cc1 (stereo not given)
30 | – | Not Active | – | COC(=O)C1=C(C)NC(=O)NC1c1ccccc1OCc1ccccc1 (stereo not given)
31 | 27.2 µM | – | – | COC(=O)C1=C(C)NC(=O)NC1c1ccc(O)c(Cl)c1 (stereo not given)
32 | – | Not Active | – | COC(=O)C1=C(C)NC(=O)NC1c1ccc(OC)c(OC)c1 (stereo not given)
33 | 64.1 µM | – | – | COC(=O)C1=C(C)NC(=O)NC1c1ccc(Br)cc1 (stereo not given)
34 | 24.2 µM | – | 2 | COC(=O)C1=C(C)NC(=O)NC1c1c(Cl)cccc1Cl (stereo not given)
35 | 22.1 µM | – | – | COC(=O)C1=C(C)NC(=O)NC1c1ccc(F)c(OC)c1 (stereo not given)
36 | 28.2 µM | – | – | COC(=O)C1=C(C)NC(=O)NC1c1ccc(OC(C)=O)c(OC)c1 (stereo not given)
37 | 15.2 µM | – | > 3 | COC(=O)C1=C(C)NC(=O)NC1c1cccc(O)c1 (stereo not given)

— ChEMBL document CHEMBL3817800, “Dihydropyrimidones: As novel class of β-glucuronidase inhibitors” (Bioorg Med Chem, 2016)
